From patent US12590067B2, “Herbicidal cyclohexanedione derivatives” (SYNGENTA CROP PROTECTION AG, priority 2019, dated 2026)

Tests used:
Assay in all cases: Glasshouse herbicidal test, pre- and post-emergence, percentage damage to the plant
Format in all cases: in vivo
[1] = tested on: Alopecurus myosuroides (ALOMY); conditions: 250 g/h, evaluated after 13 days; for ALOMY POST percentage damage caused to the plant (five-point scale): post-emergence; for ALOMY PRE percentage damage caused to the plant (five-point scale): pre-emergence
Method: (§1) Seeds of a variety of test species are sown in standard soil in pots (Lolium perenne (LOLPE), Setaria faberi (SETFA), Alopecurus myosuroides (ALOMY), Echinochloa crus-galli (ECHCG), Avena fatua (AVEFA)). After cultivation for one day (pre-emergence) or after 8 days cultivation (post-emergence) under controlled conditions in a glasshouse (at 24/16° C., day/night; 14 hours light; 65% humidity), the plants are sprayed with an aqueous spray solution derived from the formulation of the technical active ingredient in acetone/water (50:50) solution containing 0.5% Tween 20 (polyoxyethelyene sorbitan monolaurate, CAS RN 9005-64-5). Compounds are applied at 250 g/h. The test plants are then grown in a glasshouse under controlled conditions in a glasshouse (at 24/16° C., day/night; 14 hours light; 65% humidity) and watered twice daily. After 13 days for pre and post-emergence, the test is evaluated for the percentage damage caused to the plant. The biological activities are shown in the following table on a five-point scale (5=80-100%; 4=60-79%; 3=40-59%; 2=20-39%; 1=0-19%).

Avena fatua (AVEFA) = conditions: 250 g/h, evaluated after 13 days; for AVEFA POST percentage damage caused to the plant (five-point scale): post-emergence; for AVEFA PRE percentage damage caused to the plant (five-point scale): pre-emergence
Method: as §1

Lolium perenne (LOLPE) = conditions: 250 g/h, evaluated after 13 days; for LOLPE POST percentage damage caused to the plant (five-point scale): post-emergence; for LOLPE PRE percentage damage caused to the plant (five-point scale): pre-emergence
Method: as §1

Setaria faberi (SETFA) = conditions: 250 g/h, evaluated after 13 days; for SETFA POST percentage damage caused to the plant (five-point scale): post-emergence; for SETFA PRE percentage damage caused to the plant (five-point scale): pre-emergence
Method: as §1

[2] = tested on: Echinochloa crus-galli (ECHCG); conditions: 250 g/h, evaluated after 13 days; for ECHCG POST percentage damage caused to the plant (five-point scale): post-emergence; for ECHCG PRE percentage damage caused to the plant (five-point scale): pre-emergence
Method: as §1

CC#Cc1cc(C)c(C2C(=O)CC3(CCN(C(C)=O)CC3)CC2=O)c(Cl)c1 [Compound A55]
5 (5=80-100%): ALOMY POST percentage damage caused to the plant (five-point scale) [1] | ALOMY PRE percentage damage caused to the plant (five-point scale) [1] | AVEFA POST percentage damage caused to the plant (five-point scale) (Avena fatua (AVEFA)) | AVEFA PRE percentage damage caused to the plant (five-point scale) (Avena fatua (AVEFA)) | LOLPE POST percentage damage caused to the plant (five-point scale) (Lolium perenne (LOLPE)) | LOLPE PRE percentage damage caused to the plant (five-point scale) (Lolium perenne (LOLPE)) | SETFA POST percentage damage caused to the plant (five-point scale) (Setaria faberi (SETFA)) | SETFA PRE percentage damage caused to the plant (five-point scale) (Setaria faberi (SETFA)) | ECHCG POST percentage damage caused to the plant (five-point scale) [2] | ECHCG PRE percentage damage caused to the plant (five-point scale) [2]

CC#Cc1cc(Cl)c(C2C(=O)CC3(CCN(C(=O)c4ccccc4)CC3)CC2=O)c(OC)c1 [Compound A3, 3-benzoyl-9-(2-chloro-6-methoxy-4-prop-1-ynyl-phenyl)-3-azaspiro[5.5]undecane-8,10-dione]
5 (5=80-100%): ALOMY POST percentage damage caused to the plant (five-point scale) [1] | ALOMY PRE percentage damage caused to the plant (five-point scale) [1] | AVEFA POST percentage damage caused to the plant (five-point scale) (Avena fatua (AVEFA)) | AVEFA PRE percentage damage caused to the plant (five-point scale) (Avena fatua (AVEFA)) | LOLPE POST percentage damage caused to the plant (five-point scale) (Lolium perenne (LOLPE)) | LOLPE PRE percentage damage caused to the plant (five-point scale) (Lolium perenne (LOLPE)) | SETFA POST percentage damage caused to the plant (five-point scale) (Setaria faberi (SETFA)) | SETFA PRE percentage damage caused to the plant (five-point scale) (Setaria faberi (SETFA)) | ECHCG POST percentage damage caused to the plant (five-point scale) [2] | ECHCG PRE percentage damage caused to the plant (five-point scale) [2]

CC#Cc1cc(Cl)c(C2C(=O)CC3(CCN(C(=O)c4ccccn4)CC3)CC2=O)c(OC)c1 [Compound A4]
5 (5=80-100%): ALOMY POST percentage damage caused to the plant (five-point scale) [1] | ALOMY PRE percentage damage caused to the plant (five-point scale) [1] | AVEFA POST percentage damage caused to the plant (five-point scale) (Avena fatua (AVEFA)) | AVEFA PRE percentage damage caused to the plant (five-point scale) (Avena fatua (AVEFA)) | LOLPE POST percentage damage caused to the plant (five-point scale) (Lolium perenne (LOLPE)) | LOLPE PRE percentage damage caused to the plant (five-point scale) (Lolium perenne (LOLPE)) | SETFA POST percentage damage caused to the plant (five-point scale) (Setaria faberi (SETFA)) | SETFA PRE percentage damage caused to the plant (five-point scale) (Setaria faberi (SETFA)) | ECHCG POST percentage damage caused to the plant (five-point scale) [2] | ECHCG PRE percentage damage caused to the plant (five-point scale) [2]

CC#Cc1cc(Cl)c(C2C(=O)CC3(CCN(S(=O)(=O)CC)CC3)CC2=O)c(OC)c1 [Compound A2]
5 (5=80-100%): ALOMY POST percentage damage caused to the plant (five-point scale) [1] | ALOMY PRE percentage damage caused to the plant (five-point scale) [1] | AVEFA POST percentage damage caused to the plant (five-point scale) (Avena fatua (AVEFA)) | AVEFA PRE percentage damage caused to the plant (five-point scale) (Avena fatua (AVEFA)) | LOLPE POST percentage damage caused to the plant (five-point scale) (Lolium perenne (LOLPE)) | LOLPE PRE percentage damage caused to the plant (five-point scale) (Lolium perenne (LOLPE)) | SETFA POST percentage damage caused to the plant (five-point scale) (Setaria faberi (SETFA)) | SETFA PRE percentage damage caused to the plant (five-point scale) (Setaria faberi (SETFA)) | ECHCG POST percentage damage caused to the plant (five-point scale) [2] | ECHCG PRE percentage damage caused to the plant (five-point scale) [2]

CC#Cc1cc(C)c(C2C(=O)CC3(CCN(C(C)=O)CC3)CC2=O)c(CC)c1 [Compound A47]
5 (5=80-100%): ALOMY POST percentage damage caused to the plant (five-point scale) [1] | ALOMY PRE percentage damage caused to the plant (five-point scale) [1] | AVEFA POST percentage damage caused to the plant (five-point scale) (Avena fatua (AVEFA)) | AVEFA PRE percentage damage caused to the plant (five-point scale) (Avena fatua (AVEFA)) | LOLPE POST percentage damage caused to the plant (five-point scale) (Lolium perenne (LOLPE)) | LOLPE PRE percentage damage caused to the plant (five-point scale) (Lolium perenne (LOLPE)) | SETFA POST percentage damage caused to the plant (five-point scale) (Setaria faberi (SETFA)) | SETFA PRE percentage damage caused to the plant (five-point scale) (Setaria faberi (SETFA)) | ECHCG POST percentage damage caused to the plant (five-point scale) [2] | ECHCG PRE percentage damage caused to the plant (five-point scale) [2]

CC#Cc1cc(Cl)c(C2C(=O)CC3(CCN(C(=O)C(F)F)CC3)CC2=O)c(OC)c1 [Compound A9]
5 (5=80-100%): ALOMY POST percentage damage caused to the plant (five-point scale) [1] | ALOMY PRE percentage damage caused to the plant (five-point scale) [1] | AVEFA POST percentage damage caused to the plant (five-point scale) (Avena fatua (AVEFA)) | AVEFA PRE percentage damage caused to the plant (five-point scale) (Avena fatua (AVEFA)) | LOLPE POST percentage damage caused to the plant (five-point scale) (Lolium perenne (LOLPE)) | LOLPE PRE percentage damage caused to the plant (five-point scale) (Lolium perenne (LOLPE)) | SETFA POST percentage damage caused to the plant (five-point scale) (Setaria faberi (SETFA)) | SETFA PRE percentage damage caused to the plant (five-point scale) (Setaria faberi (SETFA)) | ECHCG POST percentage damage caused to the plant (five-point scale) [2] | ECHCG PRE percentage damage caused to the plant (five-point scale) [2]

CC#Cc1cc(Cl)c(C2C(=O)CC3(CCN(C(=O)CC#N)CC3)CC2=O)c(OC)c1 [Compound A12]
5 (5=80-100%): ALOMY POST percentage damage caused to the plant (five-point scale) [1] | ALOMY PRE percentage damage caused to the plant (five-point scale) [1] | AVEFA POST percentage damage caused to the plant (five-point scale) (Avena fatua (AVEFA)) | AVEFA PRE percentage damage caused to the plant (five-point scale) (Avena fatua (AVEFA)) | LOLPE POST percentage damage caused to the plant (five-point scale) (Lolium perenne (LOLPE)) | LOLPE PRE percentage damage caused to the plant (five-point scale) (Lolium perenne (LOLPE)) | SETFA POST percentage damage caused to the plant (five-point scale) (Setaria faberi (SETFA)) | SETFA PRE percentage damage caused to the plant (five-point scale) (Setaria faberi (SETFA)) | ECHCG POST percentage damage caused to the plant (five-point scale) [2] | ECHCG PRE percentage damage caused to the plant (five-point scale) [2]

CC#Cc1cc(Cl)c(C2C(=O)CC3(CCN(C(=O)C4CC4)CC3)CC2=O)c(OC)c1 [Compound A8]
5 (5=80-100%): ALOMY POST percentage damage caused to the plant (five-point scale) [1] | ALOMY PRE percentage damage caused to the plant (five-point scale) [1] | AVEFA POST percentage damage caused to the plant (five-point scale) (Avena fatua (AVEFA)) | AVEFA PRE percentage damage caused to the plant (five-point scale) (Avena fatua (AVEFA)) | LOLPE POST percentage damage caused to the plant (five-point scale) (Lolium perenne (LOLPE)) | LOLPE PRE percentage damage caused to the plant (five-point scale) (Lolium perenne (LOLPE)) | SETFA POST percentage damage caused to the plant (five-point scale) (Setaria faberi (SETFA)) | SETFA PRE percentage damage caused to the plant (five-point scale) (Setaria faberi (SETFA)) | ECHCG POST percentage damage caused to the plant (five-point scale) [2] | ECHCG PRE percentage damage caused to the plant (five-point scale) [2]

CC#Cc1cc(Cl)c(C2C(=O)CC3(CCN(C(=O)NC(C)(C)C)CC3)CC2=O)c(OC)c1 [Compound A6]
5 (5=80-100%): ALOMY POST percentage damage caused to the plant (five-point scale) [1] | ALOMY PRE percentage damage caused to the plant (five-point scale) [1] | AVEFA POST percentage damage caused to the plant (five-point scale) (Avena fatua (AVEFA)) | AVEFA PRE percentage damage caused to the plant (five-point scale) (Avena fatua (AVEFA)) | LOLPE POST percentage damage caused to the plant (five-point scale) (Lolium perenne (LOLPE)) | LOLPE PRE percentage damage caused to the plant (five-point scale) (Lolium perenne (LOLPE)) | SETFA POST percentage damage caused to the plant (five-point scale) (Setaria faberi (SETFA)) | SETFA PRE percentage damage caused to the plant (five-point scale) (Setaria faberi (SETFA)) | ECHCG POST percentage damage caused to the plant (five-point scale) [2] | ECHCG PRE percentage damage caused to the plant (five-point scale) [2]

CC#Cc1cc(Cl)c(C2C(=O)CC3(CCN(C(=O)NC(=O)C(C)(C)C)CC3)CC2=O)c(OC)c1 [Compound A7]
5 (5=80-100%): ALOMY POST percentage damage caused to the plant (five-point scale) [1] | ALOMY PRE percentage damage caused to the plant (five-point scale) [1] | AVEFA POST percentage damage caused to the plant (five-point scale) (Avena fatua (AVEFA)) | AVEFA PRE percentage damage caused to the plant (five-point scale) (Avena fatua (AVEFA)) | LOLPE POST percentage damage caused to the plant (five-point scale) (Lolium perenne (LOLPE)) | LOLPE PRE percentage damage caused to the plant (five-point scale) (Lolium perenne (LOLPE)) | SETFA POST percentage damage caused to the plant (five-point scale) (Setaria faberi (SETFA)) | SETFA PRE percentage damage caused to the plant (five-point scale) (Setaria faberi (SETFA)) | ECHCG POST percentage damage caused to the plant (five-point scale) [2] | ECHCG PRE percentage damage caused to the plant (five-point scale) [2]

CC#Cc1cc(Cl)c(C2C(=O)CC3(CCN(C(=O)C(F)F)CC3)CC2=O)c(Cl)c1 [Compound A16]
5 (5=80-100%): ALOMY POST percentage damage caused to the plant (five-point scale) [1] | ALOMY PRE percentage damage caused to the plant (five-point scale) [1] | AVEFA POST percentage damage caused to the plant (five-point scale) (Avena fatua (AVEFA)) | AVEFA PRE percentage damage caused to the plant (five-point scale) (Avena fatua (AVEFA)) | LOLPE POST percentage damage caused to the plant (five-point scale) (Lolium perenne (LOLPE)) | LOLPE PRE percentage damage caused to the plant (five-point scale) (Lolium perenne (LOLPE)) | SETFA POST percentage damage caused to the plant (five-point scale) (Setaria faberi (SETFA)) | SETFA PRE percentage damage caused to the plant (five-point scale) (Setaria faberi (SETFA)) | ECHCG POST percentage damage caused to the plant (five-point scale) [2] | ECHCG PRE percentage damage caused to the plant (five-point scale) [2]

CC#Cc1cc(Cl)c(C2C(=O)CC3(CCN(C(C)=O)CC3)CC2=O)c(OC)c1 [Compound A1]
5 (5=80-100%): AVEFA POST percentage damage caused to the plant (five-point scale) (Avena fatua (AVEFA)) | AVEFA PRE percentage damage caused to the plant (five-point scale) (Avena fatua (AVEFA)) | LOLPE POST percentage damage caused to the plant (five-point scale) (Lolium perenne (LOLPE)) | LOLPE PRE percentage damage caused to the plant (five-point scale) (Lolium perenne (LOLPE)) | SETFA POST percentage damage caused to the plant (five-point scale) (Setaria faberi (SETFA)) | SETFA PRE percentage damage caused to the plant (five-point scale) (Setaria faberi (SETFA)) | ECHCG POST percentage damage caused to the plant (five-point scale) [2] | ECHCG PRE percentage damage caused to the plant (five-point scale) [2]
